According to ChEMBL document CHEMBL1156278, “Novel benzothiophene H1-antihistamines for the treatment of insomnia” (Bioorg Med Chem Lett, 2010):
Calls of active or inactive are those of the source. The calls are words filed in the database; no cut-off is given here.

Key:
Histamine H1 receptor = Histamine H1 receptor (Homo sapiens, UniProt P35367); experiment: Displacement of [3H]pyrilamine from human histamine H1 receptor expressed in CHO Flp-In cells after 90 mins by scintillation counting; type: cell-based
Histamine H1 receptor, sequence (P35367 whole entry): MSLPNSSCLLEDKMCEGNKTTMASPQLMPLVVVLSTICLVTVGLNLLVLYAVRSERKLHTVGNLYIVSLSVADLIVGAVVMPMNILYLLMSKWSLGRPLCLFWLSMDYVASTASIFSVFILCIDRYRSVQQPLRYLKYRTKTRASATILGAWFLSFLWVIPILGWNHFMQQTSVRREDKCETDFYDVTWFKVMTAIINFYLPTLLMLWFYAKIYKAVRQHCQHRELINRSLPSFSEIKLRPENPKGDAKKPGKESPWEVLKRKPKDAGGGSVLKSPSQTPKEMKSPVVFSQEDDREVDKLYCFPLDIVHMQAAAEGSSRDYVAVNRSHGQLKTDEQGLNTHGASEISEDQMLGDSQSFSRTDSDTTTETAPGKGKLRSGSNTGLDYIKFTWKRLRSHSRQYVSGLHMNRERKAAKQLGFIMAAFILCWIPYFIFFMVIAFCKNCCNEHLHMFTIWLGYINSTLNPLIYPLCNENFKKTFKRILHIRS

[1] = molecular target: T1, Muscarinic acetylcholine receptor M1 (Homo sapiens, UniProt P11229); experiment: Displacement of [3H]N-methylscopolamine from human muscarinic M1 receptor expressed in CHO Flp-In cells after 90 mins by scintillation counting; type: cell-based
T1 sequence (P11229 whole entry): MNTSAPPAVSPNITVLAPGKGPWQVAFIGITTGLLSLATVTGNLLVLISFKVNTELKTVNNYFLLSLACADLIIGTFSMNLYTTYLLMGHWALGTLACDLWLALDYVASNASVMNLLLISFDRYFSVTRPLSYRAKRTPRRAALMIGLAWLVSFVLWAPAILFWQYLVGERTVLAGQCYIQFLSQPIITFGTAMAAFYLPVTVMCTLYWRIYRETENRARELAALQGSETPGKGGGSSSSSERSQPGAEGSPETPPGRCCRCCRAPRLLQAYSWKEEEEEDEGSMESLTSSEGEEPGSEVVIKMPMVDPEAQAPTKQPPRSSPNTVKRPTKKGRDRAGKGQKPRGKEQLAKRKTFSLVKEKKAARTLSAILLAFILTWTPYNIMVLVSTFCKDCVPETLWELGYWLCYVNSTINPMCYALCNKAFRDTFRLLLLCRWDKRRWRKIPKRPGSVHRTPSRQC

Cytochrome P450 3A4 = Cytochrome P450 3A4 (Homo sapiens, UniProt P08684); experiment: Inhibition of recombinant CYP3A4 after 30 mins by fluorescence assay
Cytochrome P450 3A4, sequence (P08684 whole entry): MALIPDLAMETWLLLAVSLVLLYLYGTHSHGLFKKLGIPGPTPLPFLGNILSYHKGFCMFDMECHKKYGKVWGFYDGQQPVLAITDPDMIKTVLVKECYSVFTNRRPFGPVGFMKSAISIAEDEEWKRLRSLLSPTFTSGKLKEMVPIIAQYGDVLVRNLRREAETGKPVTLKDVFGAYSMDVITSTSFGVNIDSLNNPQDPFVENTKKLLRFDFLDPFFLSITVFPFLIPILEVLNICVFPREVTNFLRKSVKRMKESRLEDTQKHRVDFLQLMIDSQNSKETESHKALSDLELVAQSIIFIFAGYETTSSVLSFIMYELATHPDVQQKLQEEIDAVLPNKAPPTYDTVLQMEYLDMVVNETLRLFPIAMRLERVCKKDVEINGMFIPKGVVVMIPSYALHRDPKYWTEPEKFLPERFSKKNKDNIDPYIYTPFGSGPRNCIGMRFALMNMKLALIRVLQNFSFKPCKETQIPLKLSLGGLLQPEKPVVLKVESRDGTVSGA

[2] = molecular target: T2, Voltage-gated inwardly rectifying potassium channel KCNH2 (Homo sapiens, UniProt Q12809); experiment: Displacement of [3H]Dofetilide from human ERG
T2 sequence (Q12809 whole entry): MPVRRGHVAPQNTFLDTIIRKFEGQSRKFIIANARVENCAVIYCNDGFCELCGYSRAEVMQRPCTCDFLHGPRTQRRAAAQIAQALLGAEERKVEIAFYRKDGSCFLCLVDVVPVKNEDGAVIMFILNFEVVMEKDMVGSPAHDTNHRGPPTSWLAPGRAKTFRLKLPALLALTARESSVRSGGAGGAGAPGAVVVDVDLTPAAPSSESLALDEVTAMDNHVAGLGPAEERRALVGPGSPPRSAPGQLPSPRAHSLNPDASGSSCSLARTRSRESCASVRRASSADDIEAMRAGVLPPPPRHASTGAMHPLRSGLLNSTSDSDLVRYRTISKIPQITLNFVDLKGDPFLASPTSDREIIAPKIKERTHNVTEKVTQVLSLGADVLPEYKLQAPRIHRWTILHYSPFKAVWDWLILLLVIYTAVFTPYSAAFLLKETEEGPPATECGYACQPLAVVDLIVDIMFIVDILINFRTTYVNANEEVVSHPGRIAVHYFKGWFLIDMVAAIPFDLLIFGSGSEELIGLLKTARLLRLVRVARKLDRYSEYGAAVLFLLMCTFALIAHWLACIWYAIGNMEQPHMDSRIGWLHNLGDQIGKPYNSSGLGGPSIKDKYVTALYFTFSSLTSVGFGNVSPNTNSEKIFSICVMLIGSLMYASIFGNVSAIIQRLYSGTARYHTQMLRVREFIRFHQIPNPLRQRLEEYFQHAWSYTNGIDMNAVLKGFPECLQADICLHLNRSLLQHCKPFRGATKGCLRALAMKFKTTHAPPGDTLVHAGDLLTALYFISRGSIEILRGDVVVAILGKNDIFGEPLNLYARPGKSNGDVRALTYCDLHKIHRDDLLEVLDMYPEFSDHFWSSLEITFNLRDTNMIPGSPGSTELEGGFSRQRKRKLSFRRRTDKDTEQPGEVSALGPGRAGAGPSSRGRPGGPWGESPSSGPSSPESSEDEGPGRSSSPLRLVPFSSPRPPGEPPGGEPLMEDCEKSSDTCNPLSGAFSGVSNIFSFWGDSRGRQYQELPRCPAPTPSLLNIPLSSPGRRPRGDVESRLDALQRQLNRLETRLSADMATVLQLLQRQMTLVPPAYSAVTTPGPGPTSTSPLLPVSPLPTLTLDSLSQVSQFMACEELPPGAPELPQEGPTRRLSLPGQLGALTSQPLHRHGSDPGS

Cytochrome P450 2D6 = Cytochrome P450 2D6 (Homo sapiens, UniProt P10635); experiment: Inhibition of recombinant CYP2D6 after 30 mins by fluorescence assay
Cytochrome P450 2D6, sequence (P10635 whole entry): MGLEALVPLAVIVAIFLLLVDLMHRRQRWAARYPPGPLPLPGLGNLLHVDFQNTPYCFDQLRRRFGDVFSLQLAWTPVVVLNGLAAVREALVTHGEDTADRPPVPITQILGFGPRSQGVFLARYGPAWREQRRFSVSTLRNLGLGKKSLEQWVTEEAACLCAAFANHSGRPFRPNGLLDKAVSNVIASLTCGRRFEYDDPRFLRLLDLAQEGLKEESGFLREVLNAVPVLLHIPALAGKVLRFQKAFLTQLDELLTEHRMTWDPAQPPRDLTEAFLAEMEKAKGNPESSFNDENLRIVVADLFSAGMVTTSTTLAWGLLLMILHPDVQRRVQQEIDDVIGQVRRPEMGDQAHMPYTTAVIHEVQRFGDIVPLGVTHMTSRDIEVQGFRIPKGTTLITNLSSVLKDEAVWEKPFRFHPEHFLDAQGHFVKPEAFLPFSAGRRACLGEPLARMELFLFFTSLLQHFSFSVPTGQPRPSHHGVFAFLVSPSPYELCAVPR

[3] = molecular target: T2, Voltage-gated inwardly rectifying potassium channel KCNH2; experiment: Inhibition of human ERG expressed in HEK cells assessed as blockade of potassium tail current by standard patch clamp analysis
Rattus norvegicus [4] = experiment: Increase in REM sleep in CD IGS rat model of insomnia at 30 mg/kg, po after 4 hrs by EEG/EMG study relative to control; type: functional
[5] = Apparent permeability across human Caco-2 cells; type: ADME, cell-based
[6] = Drug level in rat plasma at 30 mg/kg, po after 4 hrs; type: ADME, organism-based; design: dose 30 mg/kg, route oral
[7] = Drug level in rat brain at 30 mg/kg, po after 4 hrs; type: ADME, organism-based; design: dose 30 mg/kg, route oral; conditions: read-out: Drug uptake
[8] = Ratio of drug level in rat brain to plasma at 30 mg/kg, po after 4 hrs; type: ADME, organism-based; design: dose 30 mg/kg, route oral; conditions: read-out: Ratio
[9] = Activity at P-glycoprotein
Rattus norvegicus [10] = experiment: Increase in NREM sleep in CD IGS rat model of insomnia at 30 mg/kg, po after 4 hrs by EEG/EMG study relative to control; type: functional
Rattus norvegicus [11] = experiment: Increase in NREM sleep in CD IGS rat model of insomnia at 60 mg/kg, po after 4 hrs by EEG/EMG study relative to control; type: functional
Rattus norvegicus [12] = experiment: Effect on sleep-awake pattern in CD IGS rat model of insomnia assessed as latency to NREM sleep at 30 mg/kg, po by EEG/EMG study relative to control; type: functional
Rattus norvegicus [13] = experiment: Effect on sleep-awake pattern in CD IGS rat model of insomnia assessed as latency to NREM sleep at 60 mg/kg, po by EEG/EMG study relative to control; type: functional
Rattus norvegicus [14] = experiment: Effect on sleep-awake pattern in CD IGS rat model of insomnia assessed as longest 3 NREM bouts at 30 mg/kg, po after 6 hrs by EEG/EMG study relative to control; type: functional
Rattus norvegicus [15] = experiment: Effect on sleep-awake pattern in CD IGS rat model of insomnia assessed as longest 3 NREM bouts at 60 mg/kg, po after 6 hrs by EEG/EMG study relative to control; type: functional
Rattus norvegicus [16] = experiment: Increase in REM sleep in CD IGS rat model of insomnia at 60 mg/kg, po after 4 hrs by EEG/EMG study relative to control; type: functional
Rattus norvegicus [17] = experiment: Effect on sleep-awake pattern in CD IGS rat model of insomnia assessed as latency to REM sleep at 30 mg/kg, po by EEG/EMG study relative to control; type: functional
Rattus norvegicus [18] = experiment: Effect on sleep-awake pattern in CD IGS rat model of insomnia assessed as latency to REM sleep at 60 mg/kg, po by EEG/EMG study relative to control; type: functional
Rattus norvegicus [19] = experiment: Effect on sleep-awake pattern in CD IGS rat model of insomnia assessed as longest 3 REM bouts at 30 mg/kg, po after 6 hrs by EEG/EMG study relative to control; type: functional
Rattus norvegicus [20] = experiment: Effect on sleep-awake pattern in CD IGS rat model of insomnia assessed as longest 3 REM bouts at 60 mg/kg, po after 6 hrs by EEG/EMG study relative to control; type: functional
Caco-2 = experiment: Ratio of permeability from apical to basolateral side over basolateral to apical side in human Caco-2 cells

| Structure (SMILES) | Ki (Histamine H1 receptor; read-out: Ki) | Ki ([1]; read-out: Ki) | IC50 (Cytochrome P450 3A4) | Ki (Histamine H1 receptor) | IC50 (Cytochrome P450 2D6) | Ki [2] | IC50 [3] | further results |
| --- | --- | --- | --- | --- | --- | --- | --- | --- |
| CC(c1cccc(F)n1)c1c(CCN(C)C)sc2ccccc12 (racemic) | 0.038 µM | > 10 µM | > 10 µM | – | – | > 5 µM | – | – |
| C[C@@H](c1ccccn1)c1c(CCN2CCCC2)sc2ccccc12 | – | 5.8 µM | > 10 µM | 0.0061 µM | 2.7 µM | 1.1 µM | – | – |
| C[C@@H](c1cncs1)c1c(CCN(C)C)sc2ccccc12 | 0.0052 µM | > 10 µM | > 10 µM | – | – | > 5 µM | – | – |
| CNCCc1sc2ccccc2c1[C@@H](C)c1ccccn1 | 0.032 µM | – | > 10 µM | – | 9.8 µM | > 5 µM | 6.5 µM | Ki [1]: 3.7 µM |

Continued, in another order:

| Ki (Histamine H1 receptor; read-out: Ki) | Ki ([1]; read-out: Ki) | IC50 (Cytochrome P450 3A4) | Ki (Histamine H1 receptor) | IC50 (Cytochrome P450 2D6) | Structure (SMILES) | Ki [2] | IC50 [3] | further results |
| --- | --- | --- | --- | --- | --- | --- | --- | --- |
| – | 5.6 µM | 2.8 µM | 0.023 µM | 0.85 µM | CC(c1ccncc1)c1c(CCN(C)C)sc2ccccc12 (racemic) | 1.8 µM | – | – |
| 0.0029 µM | > 10 µM | > 10 µM | – | 9.6 µM | COc1ncccc1[C@@H](C)c1c(CCN(C)C)sc2ccccc12 | > 5 µM | 1.8 µM | Activity (Rattus norvegicus [4]): 7%; Papp [5]: > 217 nm/s; concentration at 4 h [6]: 0.0375 µg/mL; concentration at 4 h [7]: 347 ng/g; Kp at 4 h [8]: 9; Activity [9]: inactive; Activity (Rattus norvegicus [10]): 33.1%; Activity (Rattus norvegicus [11]): 28.3%; Activity (Rattus norvegicus [12]): 37 min; Activity (Rattus norvegicus [13]): 49 min; Activity (Rattus norvegicus [14]): 7 min; Activity (Rattus norvegicus [15]): 6.7 min; Activity (Rattus norvegicus [16]): 6.8%; Activity (Rattus norvegicus [17]): 56 min; Activity (Rattus norvegicus [18]): 72 min; Activity (Rattus norvegicus [19]): 2.3 min; Activity (Rattus norvegicus [20]): 2.3 min; Ratio (Caco-2): > 0.7 |
